According to ChEMBL document CHEMBL3992485 (Medchemcomm, 2016):
Calls of active or inactive are those of the source. The rule behind the calls is not given here.

How the values were obtained:
[1] = test system: HeLa; assay: Antiproliferative activity against human HeLa cells measured after 24 hrs by MTT assay; type: functional, cell-based
[2] = test system: HepG2; assay: Antiproliferative activity against human HepG2 cells measured after 24 hrs by MTT assay; type: functional, cell-based; conditions: HepG2, 24 h
[3] = test system: MCF7; assay: Antiproliferative activity against human MCF7 cells measured after 24 hrs by MTT assay; type: functional, cell-based; conditions: MCF7, 24 h
[4] = Inhibition of tubulin polymerization in bovine brain assessed as reduction in tubulin assembly after 20 mins by spectrophotometric method; set-up: species or system Bos taurus
[5] = Antiproliferative activity against human 293T cells measured after 24 hrs by MTT assay; type: cell-based; conditions: 293T (HEK-293T) cells
[6] = test system: A549; assay: Antiproliferative activity against human A549 cells measured after 24 hrs by MTT assay; type: functional, cell-based; conditions: A549, 24 h
[7] = test system: HeLa; assay: Inhibition of microtubule polymerization in human HeLa cells at 0.2 uM after 24 hrs by DAPI staining based confocal microscopic analysis; type: cell-based

Q: Which results are given for `CCCn1cc(C(=O)N2CCN(S(=O)(=O)c3ccc(Cl)cc3)CC2)c2ccccc21`?
A: IC50 [1]: > 100 µM; IC50 [2]: 50.6 µM; IC50 [3]: > 100 µM; IC50 [4]: 45.4 µM; CC50 at 24 h [5]: 537 µM; IC50 [6]: > 100 µM

Q: Which results are given for `CCCn1cc(C(=O)N2CCN(S(=O)(=O)c3ccc(C)cc3)CC2)c2ccccc21`?
A: IC50 [1]: 10.7 µM; IC50 [2]: 24.9 µM; IC50 [3]: 16.8 µM; IC50 [4]: 3.15 µM; CC50 at 24 h [5]: 357 µM; IC50 [6]: 14.7 µM

Q: Which IC50 [1] does the source give for `O=C(c1cn(Cc2ccccc2)c2ccccc12)N1CCN(S(=O)(=O)c2ccc(Cl)cc2)CC1` here?
A: > 100 µM

Q: What about the IC50 [2] of the same compound?
A: > 100 µM

Q: What about the IC50 [3] of the same compound?
A: 46.6 µM

Q: And the IC50 [4]?
A: 6.01 µM

Q: And the CC50 at 24 h [5]?
A: 472 µM

Q: What about the IC50 [6] of the same compound?
A: 54.8 µM

Q: With `Cc1ccc(S(=O)(=O)N2CCN(C(=O)c3cn(Cc4ccccc4)c4ccccc34)CC2)cc1` as the compound, how does the IC50 [1] read?
A: 10 µM

Q: What about the IC50 [2] of the same compound?
A: 33.2 µM

Q: What about the IC50 [3] of the same compound?
A: 18.7 µM

Q: What about the IC50 [4] of the same compound?
A: 3.02 µM

Q: And the CC50 at 24 h [5]?
A: 321 µM

Q: And the IC50 [6]?
A: 17 µM

Q: With `CCCn1cc(C(=O)N2CCN(S(=O)(=O)c3ccccc3)CC2)c2ccccc21` as the compound, how does the IC50 [1] read?
A: > 100 µM

Q: And the IC50 [2]?
A: 29.7 µM

Q: What about the IC50 [3] of the same compound?
A: 23.6 µM

Q: And the IC50 [4]?
A: 48.9 µM

Q: And the CC50 at 24 h [5]?
A: 485 µM

Q: What about the IC50 [6] of the same compound?
A: 23.6 µM

Q: With `CCn1cc(C(=O)N2CCN(S(=O)(=O)c3ccccc3)CC2)c2ccccc21` as the compound, how does the IC50 [1] read?
A: 15.8 µM

Q: And the IC50 [2]?
A: 14.8 µM

Q: And the IC50 [3]?
A: 22.7 µM

Q: And the IC50 [4]?
A: 3.75 µM

Q: What about the CC50 at 24 h [5] of the same compound?
A: 366 µM

Q: What about the IC50 [6] of the same compound?
A: > 100 µM

Q: For `Cc1ccc(S(=O)(=O)N2CCN(C(=O)c3cn(C)c4ccccc34)CC2)cc1`, which IC50 [1] is on record?
A: 3.65 µM

Q: And the IC50 [2]?
A: 1.83 µM

Q: And the IC50 [3]?
A: 6.53 µM

Q: And the IC50 [4]?
A: 2.15 µM

Q: And the CC50 at 24 h [5]?
A: 353 µM

Q: What about the IC50 [6] of the same compound?
A: 7.43 µM

Q: For `CCn1cc(C(=O)N2CCN(S(=O)(=O)c3ccc(Cl)cc3)CC2)c2ccccc21`, which IC50 [1] is on record?
A: > 100 µM

Q: And the IC50 [2]?
A: 36.8 µM

Q: What about the IC50 [3] of the same compound?
A: 46.6 µM

Q: What about the IC50 [4] of the same compound?
A: 44.9 µM

Q: What about the CC50 at 24 h [5] of the same compound?
A: 275 µM

Q: What about the IC50 [6] of the same compound?
A: > 100 µM

Q: Which IC50 [1] does the source give for `O=C(c1cn(Cc2ccccc2)c2ccccc12)N1CCN(S(=O)(=O)c2ccc(Br)cc2)CC1` here?
A: 35.6 µM

Q: What about the IC50 [2] of the same compound?
A: 38.6 µM

Q: And the IC50 [3]?
A: 37.8 µM

Q: And the IC50 [4]?
A: 6.74 µM

Q: And the CC50 at 24 h [5]?
A: 326 µM

Q: What about the IC50 [6] of the same compound?
A: > 100 µM

Q: What does the source list for `CCCn1cc(C(=O)N2CCN(S(=O)(=O)c3ccc(Br)cc3)CC2)c2ccccc21`?
A: IC50 [1]: 27.5 µM; IC50 [2]: 44.9 µM; IC50 [3]: 64.8 µM; IC50 [4]: 27.5 µM; CC50 at 24 h [5]: 463 µM; IC50 [6]: 39.8 µM

Q: Which IC50 [1] does the source give for `CCCn1cc(C(=O)N2CCN(S(=O)(=O)c3ccc([N+](=O)[O-])cc3)CC2)c2ccccc21` here?
A: > 100 µM

Q: What about the IC50 [2] of the same compound?
A: > 100 µM

Q: And the IC50 [3]?
A: > 100 µM

Q: And the IC50 [4]?
A: 44.8 µM

Q: And the CC50 at 24 h [5]?
A: 464 µM

Q: And the IC50 [6]?
A: > 100 µM

Q: Which IC50 [1] does the source give for `CCn1cc(C(=O)N2CCN(S(=O)(=O)c3ccc([N+](=O)[O-])cc3)CC2)c2ccccc21` here?
A: 48 µM

Q: What about the IC50 [2] of the same compound?
A: 69.3 µM

Q: And the IC50 [3]?
A: 50.9 µM

Q: What about the IC50 [4] of the same compound?
A: 5.52 µM

Q: What about the CC50 at 24 h [5] of the same compound?
A: 436 µM

Q: And the IC50 [6]?
A: 63.5 µM

Q: Which IC50 [1] does the source give for `CC(C)c1cc(C(C)C)c(S(=O)(=O)N2CCN(C(=O)c3cn(C)c4ccccc34)CC2)c(C(C)C)c1` here?
A: 0.37 µM

Q: What about the IC50 [2] of the same compound?
A: 0.45 µM

Q: And the IC50 [3]?
A: 0.63 µM

Q: And the IC50 [4]?
A: 1.97 µM

Q: What about the CC50 at 24 h [5] of the same compound?
A: 383 µM

Q: What about the IC50 [6] of the same compound?
A: 0.94 µM

Q: For `CC(C)c1cc(C(C)C)c(S(=O)(=O)N2CCN(C(=O)c3cn(Cc4ccccc4)c4ccccc34)CC2)c(C(C)C)c1`, which IC50 [1] is on record?
A: 18.3 µM

Q: What about the IC50 [2] of the same compound?
A: 17.6 µM

Q: And the IC50 [3]?
A: 14.1 µM

Q: And the IC50 [4]?
A: 3.64 µM

Q: What about the CC50 at 24 h [5] of the same compound?
A: 295 µM

Q: And the IC50 [6]?
A: 10.7 µM

Q: With `Cn1cc(C(=O)N2CCN(S(=O)(=O)c3ccc(Br)cc3)CC2)c2ccccc21` as the compound, how does the IC50 [1] read?
A: 9.86 µM

Q: What about the IC50 [2] of the same compound?
A: 5.79 µM

Q: What about the IC50 [3] of the same compound?
A: 17.3 µM

Q: What about the IC50 [4] of the same compound?
A: 3.96 µM

Q: And the CC50 at 24 h [5]?
A: 295 µM

Q: What about the IC50 [6] of the same compound?
A: 6.49 µM

Q: With `Cn1cc(C(=O)N2CCN(S(=O)(=O)c3ccccc3)CC2)c2ccccc21` as the compound, how does the IC50 [1] read?
A: 7.76 µM

Q: What about the IC50 [2] of the same compound?
A: 4.54 µM

Q: What about the IC50 [3] of the same compound?
A: 9.43 µM

Q: What about the IC50 [4] of the same compound?
A: 2.76 µM

Q: What about the CC50 at 24 h [5] of the same compound?
A: 314 µM

Q: And the IC50 [6]?
A: 15.5 µM

Q: What does the source list for `COc1cc2c(c(OC)c1OC)-c1ccc(OC)c(=O)cc1[C@@H](NC(C)=O)CC2` [COLCHICINE]?
A: IC50 [1]: 0.45 µM; IC50 [2]: 0.64 µM; IC50 [3]: 0.54 µM; CC50 at 24 h [5]: 152 µM; inhibition [7]: Active; IC50 [6]: 0.47 µM

Q: For `CC(=O)O[C@H]1C(=O)[C@@]2(C)[C@H]([C@H](OC(=O)c3ccccc3)[C@]3(O)C[C@H](OC(=O)[C@H](O)[C@@H](NC(=O)c4ccccc4)c4ccccc4)C(C)=C1C3(C)C)[C@]1(OC(C)=O)CO[C@@H]1C[C@@H]2O`, which inhibition [7] is on record?
A: inactive

Q: For `CCn1cc(C(=O)N2CCN(S(=O)(=O)c3ccc(C)cc3)CC2)c2ccccc21`, which IC50 [1] is on record?
A: 12.8 µM

Q: And the IC50 [2]?
A: 7.45 µM

Q: What about the IC50 [3] of the same compound?
A: 24.6 µM

Q: What about the IC50 [4] of the same compound?
A: 3.75 µM

Q: What about the CC50 at 24 h [5] of the same compound?
A: 298 µM

Q: And the IC50 [6]?
A: 24.7 µM

Q: Which IC50 [1] does the source give for `Cn1cc(C(=O)N2CCN(S(=O)(=O)c3ccc(Cl)cc3)CC2)c2ccccc21` here?
A: 11.7 µM

Q: And the IC50 [2]?
A: 16.3 µM

Q: And the IC50 [3]?
A: 29.5 µM

Q: What about the IC50 [4] of the same compound?
A: 3.34 µM

Q: What about the CC50 at 24 h [5] of the same compound?
A: 257 µM

Q: And the IC50 [6]?
A: 25.3 µM

Q: With `O=C(c1cn(Cc2ccccc2)c2ccccc12)N1CCN(S(=O)(=O)c2ccc([N+](=O)[O-])cc2)CC1` as the compound, how does the IC50 [1] read?
A: 42.9 µM

Q: What about the IC50 [2] of the same compound?
A: > 100 µM

Q: And the IC50 [3]?
A: 50.6 µM

Q: And the IC50 [4]?
A: 6.84 µM

Q: And the CC50 at 24 h [5]?
A: 347 µM

Q: What about the IC50 [6] of the same compound?
A: > 100 µM

Q: Which IC50 [1] does the source give for `CCn1cc(C(=O)N2CCN(S(=O)(=O)c3ccc(Br)cc3)CC2)c2ccccc21` here?
A: 32.9 µM

Q: And the IC50 [2]?
A: 26.6 µM

Q: And the IC50 [3]?
A: 27.6 µM

Q: And the IC50 [4]?
A: 4.87 µM

Q: And the CC50 at 24 h [5]?
A: 354 µM

Q: And the IC50 [6]?
A: 48.4 µM

Q: Which IC50 [1] does the source give for `O=C(c1cn(Cc2ccccc2)c2ccccc12)N1CCN(S(=O)(=O)c2ccccc2)CC1` here?
A: 21.1 µM

Q: What about the IC50 [2] of the same compound?
A: 27.9 µM

Q: And the IC50 [3]?
A: 35.6 µM

Q: What about the IC50 [4] of the same compound?
A: 5.64 µM

Q: What about the CC50 at 24 h [5] of the same compound?
A: 262 µM

Q: What about the IC50 [6] of the same compound?
A: 22.4 µM

Q: Which results are given for `CCCn1cc(C(=O)N2CCN(S(=O)(=O)c3c(C(C)C)cc(C(C)C)cc3C(C)C)CC2)c2ccccc21`?
A: IC50 [1]: 14.9 µM; IC50 [2]: 16.8 µM; IC50 [3]: 11.6 µM; IC50 [4]: 2.87 µM; CC50 at 24 h [5]: 311 µM; IC50 [6]: 17.5 µM

Q: Which IC50 [1] does the source give for `Cn1cc(C(=O)N2CCN(S(=O)(=O)c3ccc([N+](=O)[O-])cc3)CC2)c2ccccc21` here?
A: 15.6 µM

Q: And the IC50 [2]?
A: 28 µM

Q: What about the IC50 [3] of the same compound?
A: 32.6 µM

Q: And the IC50 [4]?
A: 3.56 µM

Q: And the CC50 at 24 h [5]?
A: 374 µM

Q: What about the IC50 [6] of the same compound?
A: 44.6 µM
